According to patent US20110319484A1, “NEUROPROTECTIVE COMPOUNDS” (Parque Tecnologico de Ciencias de la Salud, priority 2009, published 2011):

Legend:
[1] = tested on: hippocampus of mice; assay: Neuroprotection in the hippocampus of mice after kainate (histopathology); type: in vivo, mice (FVB/NHan); conditions: KA 25 mg/kg i.p., NST0005 50 mg/kg i.p. daily, 2 days before and 7 days after KA
Procedure: (§1) All the animals included during the experimental process were 12-week old males of the FVB/NHan strain. The experiments were carried out strictly following the Guidance on the Operation of Animals (Scientific Procedures, Act. 1986). The animals had their respective quarantine period and were treated with maximum precaution to minimize possible contaminations for inoculations and handling.
Sixteen animals were used in this assay and the treatments were all carried out by intraperitoneal (i.p.) route with a volume of 100 μl, according to the following regimens: • i) PBS+PBS+PBS regimen: 4 animals were initially treated with PBS with a daily dose for 2 days, on the second day the animals were inoculated with a new dose of PBS and for the next 7 days with a daily dose of PBS. • ii) PBS+KA+PBS regimen: 6 animals were initially treated with PBS with a daily dose for 2 days, on the second day the animals were inoculated with a dose of kainate at 25 mg/kg and for the next 7 days with a daily dose of PBS. • iii) NST0005+KA+NST0005 regimen: 6 animals were initially treated with NST0005 with a daily dose of 50 mg/kg for 2 days, on the second day the animals were inoculated with a dose of kainate at 25 mg/kg and for the next 7 days with a daily dose of NST0005 at 50 mg/kg.
Once the treatment time of 7 days ended, the animals were sacrificed and the brains were dissected. The brain samples were processed and included in paraffin. Fluoro-Jade B® (FJB) fluorescent stain was used in 5 μm thick sections to analyze the neurodegeneration of the hippocampus.
Based on the neuroprotection results shown in the previous section, the inventors decided to investigate if the neuroprotective effect of NST0005 in the hippocampus of mice against the administration of kainate (KA) was accompanied by the protection of another sign of neuronal damage such as neuritic dystrophy. To that end, the same experimental scheme was used as in section 6.1. Once the treatment period of 7 days ended, the animals were sacrificed and the brains were dissected. The brain samples were processed and included in paraffin. Bright field immunohistochemistry of the microtubule-associated protein 2 (MAP2) was used in 5 μm thick sections to analyze the neuritic dystrophy of the hippocampus.
Based on the neuroprotection results shown in the previous sections, the inventors decided to investigate if the neuroprotective effect of NST0005 in the hippocampus of mice against the administration of kainate (KA) was accompanied by the inhibition of neuronal death by apoptosis. To that end, the same experimental scheme was used as in section 6.1. Once the treatment period of 7 days ended, the animals were sacrificed and the brains were dissected. The brain samples were processed and included in paraffin. […]

[2] = tested on: mice; assay: Antiepileptic effect against kainate administered to mice; type: in vivo, mice (FVB/NHan); conditions: KA 25 mg/kg i.p.
From the text: It is known that the administration of an excitotoxic substance to animals induces, in some cases, epileptic seizures and convulsions. As a result the inventors decided to investigate if the neuroprotective effect of (1S,3R,7S,8S,8aR)-1,2,3,7,8,8a-hexahydro-3,7-dimethyl-8-[2-[(2R,4R)-tetrahydro-4-hydroxy-6-oxo-2H-pyran-2-yl]ethyl-1-naphthalenyl 2,2-dimethylpropanoate (NST0005) was accompanied by an antiepileptic effect caused by an excitotoxic substance.
as §1
The animals were inoculated intraperitoneally with 25 mg/kg of kainate (KA) dissolved in PBS. Nine animals were pretreated at 24 and 0.5 hours before the inoculation with KA by means of intraperitoneal injection with PBS (PBS+KA administration regimen) and 9 were pretreated at 24 and 0.5 hours before the inoculation with KA by means of intraperitoneal injection with NST0005 at a dose of 50 mg/kg (NST0005+KA administration regimen). After the inoculation, the animals were individually housed in trays to monitor them. The maximum epilepsy level of the animals according to Racine's scale was recorded during the observation every ten minutes and for at least 120 minutes post-inoculation (m.p.i.).
Comparative studies of the epileptogenic phenomena between the treatment with PBS (PBS+KA) and with NST0005 (NST0005+KA) were subsequently conducted, the data of which are shown in Table 1.

[3] = NST0005 50 mg/kg i.p. at 24 and 0.5 h before KA, n=9

C[C@H]1C=C2C=C[C@H](C)[C@H](CC[C@@H]3C[C@@H](O)CC(=O)O3)[C@H]2[C@@H](OC(=O)C(C)(C)C)C1 [NST0005]
neuritic dystrophy in the hippocampus (MAP2) [1]: significantly prevents the neuritic dystrophy | neurodegeneration in the hippocampus (Fluoro-Jade B) [1]: completely protected against the neurodegeneration | neuronal death by apoptosis in the hippocampus (Acridine Orange) [1]: prevents neuronal damage, neurodegeneration and also neuronal death by apoptosis | neuronal death by necrosis in the hippocampus (hematoxylin and eosin) [1]: substantially prevents neuronal death by necrosis | Animals with convulsions (%) [2, 3]: 33.3% | Animals with status epilepticus (%) [2, 3]: 22.2% | Mortality (%) [2, 3]: 11.1% | epilepsy level in Racine's scale reached ([2]; NST0005 50 mg/kg i.p. pretreatment, at least 120 min observation): < 3 | latency (time of onset of the first convulsions) ([2]; NST0005 50 mg/kg i.p. pretreatment, mean±SEM): 108.9 ± 5.9 min
